# Assay results published in patent US11077111B2, “Use of fused heteroaromatic pyrrolidones for treatment and prevention of diseases in animals” (Bayer Animal Health GmbH, priority 2017, dated 2021).
# How the values were obtained:
# [1] = tested on: house dust mites (HDM)-sensitized Beagle dogs; test: In vivo model of house dust mite induced canine allergic dermatitis; settings: for reduction rates of edema / reduction rates of erythema: range over time points
# Procedure: Therein, HDM-sensitization consisted of a series of subcutaneous injections of HDM antigen (10 μg, Greer Laboratories, Lenoir, N.C., USA) and Alhydrogel® (0.2 mL, InvivoGen, San Diego, Calif. 921221, USA) as adjuvant in time intervals of approximately two weeks. The sensitization process was monitored and confirmed by intradermal skin testing. […] The control group was not treated while the group treated with the compound according to formula (IIIa) supra was orally treated with gelatin capsules containing the compound according to formula (IIIa) supra and Ac-Di-Sol; the group receiving Apoquel®, received the commercially available tablets. […] Plasma samples were analyzed to determine exposure to the compound in relationship to the clinical evaluations. […] This is illustrated by Tables 1 and 2, and by FIGS. 1 and 2.
# [2] = molecular target: JAK1 (Canis lupus familiaris, UniProt A0A8I3RS40); test: Radiometric protein kinase assay, dog JAK1; format: biochemical, Dog (Canis lupus familiaris); settings: 3 μM ATP
# Chain of JAK1 (A0A8I3RS40 1-1159): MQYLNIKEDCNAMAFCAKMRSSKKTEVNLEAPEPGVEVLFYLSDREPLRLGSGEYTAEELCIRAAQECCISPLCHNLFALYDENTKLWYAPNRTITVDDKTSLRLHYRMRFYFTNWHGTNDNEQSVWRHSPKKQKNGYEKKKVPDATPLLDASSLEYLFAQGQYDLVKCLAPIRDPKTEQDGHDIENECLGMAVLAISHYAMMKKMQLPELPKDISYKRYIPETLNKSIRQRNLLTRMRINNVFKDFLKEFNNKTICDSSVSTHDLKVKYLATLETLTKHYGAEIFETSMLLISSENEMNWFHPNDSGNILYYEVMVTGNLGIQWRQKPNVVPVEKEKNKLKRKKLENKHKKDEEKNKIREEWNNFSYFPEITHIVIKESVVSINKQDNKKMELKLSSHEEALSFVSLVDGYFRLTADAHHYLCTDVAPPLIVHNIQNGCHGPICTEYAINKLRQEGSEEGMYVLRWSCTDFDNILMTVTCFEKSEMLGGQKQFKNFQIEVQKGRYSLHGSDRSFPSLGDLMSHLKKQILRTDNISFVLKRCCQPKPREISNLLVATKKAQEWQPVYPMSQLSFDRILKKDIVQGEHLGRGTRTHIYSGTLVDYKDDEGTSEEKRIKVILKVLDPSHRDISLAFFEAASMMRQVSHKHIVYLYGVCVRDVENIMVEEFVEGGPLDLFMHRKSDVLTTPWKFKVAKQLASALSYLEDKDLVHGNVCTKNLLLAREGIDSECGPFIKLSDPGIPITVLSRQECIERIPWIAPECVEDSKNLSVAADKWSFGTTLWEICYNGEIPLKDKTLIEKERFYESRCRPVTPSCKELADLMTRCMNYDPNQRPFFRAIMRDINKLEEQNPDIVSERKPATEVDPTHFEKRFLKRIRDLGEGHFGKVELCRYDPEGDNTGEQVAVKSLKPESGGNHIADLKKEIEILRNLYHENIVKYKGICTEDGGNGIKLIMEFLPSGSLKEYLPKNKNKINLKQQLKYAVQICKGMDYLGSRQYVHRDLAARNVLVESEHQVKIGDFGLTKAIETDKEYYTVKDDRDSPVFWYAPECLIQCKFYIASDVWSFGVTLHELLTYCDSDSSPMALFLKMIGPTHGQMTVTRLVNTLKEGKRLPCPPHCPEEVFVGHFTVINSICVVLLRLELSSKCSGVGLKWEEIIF
# Procedure: (§1) A radiometric protein kinase assay was used for measuring the kinase activity of the Dog (Canis lupus familiaris) IRAK4, JAK1, JAK2, SYK kinases. All kinase assays were performed in 96-well FlashPlates in a 50 μl reaction volume. The reaction cocktail was pipetted in four steps in the following order: • 20 μl of assay buffer (standard buffer) • […] of test compound (in 10% DMSO) • 20 μl enzyme/substrate mix • […] (in H2O) The reaction cocktails were incubated at 30° C. for 60 minutes. The reaction was stopped with 50 μl of 2% (v/v) H3PO4, plates were aspirated and washed two times with 200 μl 0.9% (w/v) NaCl. Incorporation of 33Pi was determined with a microplate scintillation counter.
# (§2) IC50 calculation: the residual activity (in %) for each well of a particular plate was calculated by using the following formula: Res. Activity (%)=100×[(cpm of compound−low control)/(high control−low control)]
# (§3) The residual activities for each concentration and the compound IC50 values were calculated using Quattro Workflow V3.1.1 (Quattro Research GmbH, Munich, Germany; www.quattro-research.com). The fitting model for the IC50 determinations was “Sigmoidal response (variable slope)” with parameters “top” fixed at 100% and “bottom” at 0%. The fitting method used was a least-squares fit. […]
# [3] = molecular target: SYK (Canis lupus familiaris, UniProt A0A8I3P3G0); test: Radiometric protein kinase assay, dog SYK; format: biochemical, Dog (Canis lupus familiaris); settings: 1 μM ATP
# Chain of SYK (A0A8I3P3G0 1-633): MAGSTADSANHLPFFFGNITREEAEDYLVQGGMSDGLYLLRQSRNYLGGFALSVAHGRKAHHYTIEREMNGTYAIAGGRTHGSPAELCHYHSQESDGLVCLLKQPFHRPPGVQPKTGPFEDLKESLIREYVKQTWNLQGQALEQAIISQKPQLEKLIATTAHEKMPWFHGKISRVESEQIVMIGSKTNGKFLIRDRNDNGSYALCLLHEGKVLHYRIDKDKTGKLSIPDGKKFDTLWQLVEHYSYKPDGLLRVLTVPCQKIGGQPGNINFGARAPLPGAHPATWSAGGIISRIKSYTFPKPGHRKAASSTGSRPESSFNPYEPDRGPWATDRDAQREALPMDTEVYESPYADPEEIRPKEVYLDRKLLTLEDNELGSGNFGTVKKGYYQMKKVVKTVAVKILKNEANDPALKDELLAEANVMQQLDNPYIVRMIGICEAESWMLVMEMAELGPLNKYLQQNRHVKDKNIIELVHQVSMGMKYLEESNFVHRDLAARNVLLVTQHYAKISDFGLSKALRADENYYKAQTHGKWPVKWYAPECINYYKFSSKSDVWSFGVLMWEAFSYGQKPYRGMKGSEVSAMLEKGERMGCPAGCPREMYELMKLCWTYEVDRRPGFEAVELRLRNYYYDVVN
# Procedure: A radiometric protein kinase assay was used for measuring the kinase activity of the Dog (Canis lupus familiaris) IRAK4, JAK1, JAK2, SYK kinases. All kinase assays were performed in 96-well FlashPlates in a 50 μl reaction volume. […] The reaction was stopped with 50 μl of 2% (v/v) H3PO4, plates were aspirated and washed two times with 200 μl 0.9% (w/v) NaCl. Incorporation of 33Pi was determined with a microplate scintillation counter. IC50 calculation: the residual activity (in %) for each well of a particular plate was calculated by using the following formula: Res. Activity (%)=100×[(cpm of compound−low control)/(high control−low control)] […] The fitting method used was a least-squares fit. Materials: The dog (Canis lupus familiaris) protein kinases IRAK4, JAK1, JAK2 and SYK had been recombinantly expressed in Sf9 insect cells and purified by affinity chromatography.
# [4] = molecular target: IRAK4 (Canis lupus familiaris, UniProt A0A8I3S726); test: Radiometric protein kinase assay, dog IRAK4; format: biochemical, Dog (Canis lupus familiaris); settings: 10 μM ATP
# Chain of IRAK4 (A0A8I3S726 1-460): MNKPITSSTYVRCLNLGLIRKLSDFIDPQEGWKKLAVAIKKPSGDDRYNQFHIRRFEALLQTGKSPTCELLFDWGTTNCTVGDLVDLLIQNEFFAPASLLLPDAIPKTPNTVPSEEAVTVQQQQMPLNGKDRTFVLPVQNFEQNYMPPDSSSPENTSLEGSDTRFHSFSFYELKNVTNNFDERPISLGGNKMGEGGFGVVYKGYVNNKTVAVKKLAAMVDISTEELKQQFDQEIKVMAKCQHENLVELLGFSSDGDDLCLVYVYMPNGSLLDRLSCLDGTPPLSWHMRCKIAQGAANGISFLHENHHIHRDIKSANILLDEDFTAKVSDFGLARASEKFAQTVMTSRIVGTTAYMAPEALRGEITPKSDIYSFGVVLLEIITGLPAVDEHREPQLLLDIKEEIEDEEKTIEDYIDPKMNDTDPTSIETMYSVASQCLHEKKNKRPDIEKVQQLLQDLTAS
# Procedure: as §1, §2, §3
# [5] = molecular target: JAK2 (Canis lupus familiaris, UniProt A0A8C0QV87); test: Radiometric protein kinase assay, dog JAK2; format: biochemical, Dog (Canis lupus familiaris); settings: 0.3 μM ATP
# Chain of JAK2 (A0A8C0QV87 1-1132): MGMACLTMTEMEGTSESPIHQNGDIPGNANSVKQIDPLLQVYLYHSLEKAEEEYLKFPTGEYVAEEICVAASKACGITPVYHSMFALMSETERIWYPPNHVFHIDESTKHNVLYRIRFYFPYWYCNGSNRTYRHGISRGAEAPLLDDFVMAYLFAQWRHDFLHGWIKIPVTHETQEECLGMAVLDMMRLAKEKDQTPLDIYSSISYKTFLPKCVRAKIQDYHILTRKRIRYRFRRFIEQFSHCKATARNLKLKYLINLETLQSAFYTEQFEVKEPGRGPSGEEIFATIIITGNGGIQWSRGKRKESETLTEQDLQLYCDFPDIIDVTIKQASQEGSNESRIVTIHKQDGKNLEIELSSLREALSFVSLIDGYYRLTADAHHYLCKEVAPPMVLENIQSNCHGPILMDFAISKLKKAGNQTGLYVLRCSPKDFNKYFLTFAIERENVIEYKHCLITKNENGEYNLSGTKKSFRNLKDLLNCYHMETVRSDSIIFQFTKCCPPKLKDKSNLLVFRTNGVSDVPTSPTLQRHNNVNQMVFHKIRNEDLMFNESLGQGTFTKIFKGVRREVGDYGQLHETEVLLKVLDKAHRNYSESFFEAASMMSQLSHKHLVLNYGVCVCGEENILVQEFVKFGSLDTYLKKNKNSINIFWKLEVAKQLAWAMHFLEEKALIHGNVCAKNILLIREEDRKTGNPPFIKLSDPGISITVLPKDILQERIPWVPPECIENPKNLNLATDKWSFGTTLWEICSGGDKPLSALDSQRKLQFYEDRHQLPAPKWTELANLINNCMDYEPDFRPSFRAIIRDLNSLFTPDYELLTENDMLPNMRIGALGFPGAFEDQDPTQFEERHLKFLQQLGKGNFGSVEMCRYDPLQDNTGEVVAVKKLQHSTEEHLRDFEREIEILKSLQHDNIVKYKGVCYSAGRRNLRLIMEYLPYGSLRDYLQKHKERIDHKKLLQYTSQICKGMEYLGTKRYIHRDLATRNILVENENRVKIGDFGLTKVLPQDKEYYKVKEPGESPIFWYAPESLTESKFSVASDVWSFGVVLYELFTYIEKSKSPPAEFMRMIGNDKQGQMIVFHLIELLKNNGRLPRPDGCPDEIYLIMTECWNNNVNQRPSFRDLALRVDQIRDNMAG
# Procedure: as §1, §2, §3
# [6] = 0.8 mg/kg BID oral, 0.5 h post-challenge
# [7] = 0.8 mg/kg BID oral, 1 h post-challenge
# [8] = 0.8 mg/kg BID oral, 4 h post-challenge
# [9] = 0.8 mg/kg BID oral, 6 h post-challenge
# [10] = 0.8 mg/kg BID oral, 24 h post-challenge
# [11] = 0.8 mg/kg BID oral, 48 h post-challenge
# [12] = 2 mg/kg BID oral, 0.5 h post-challenge
# [13] = 2 mg/kg BID oral, 1 h post-challenge
# [14] = 2 mg/kg BID oral, 4 h post-challenge
# [15] = 2 mg/kg BID oral, 6 h post-challenge
# [16] = 2 mg/kg BID oral, 24 h post-challenge
# [17] = 2 mg/kg BID oral, 48 h post-challenge
structure (smiles),measurement,setting,value
"Cn1cc(-c2nc(N[C@@H]3CCCC[C@@H]3N)c(F)c3c2C(=O)NC3)cn1 [IIIa, 6-((1R,2S)-2-aminocyclohexylamino)-7-fluoro-4-(1-methyl-1H-pyrazol-4-yl)-1H-pyrrolo[3,4-c]pyridine-3(2H)-one]","Percentage of reduction of Edema (compared to untreated control, median values)",[1]; [6],41%
same,"Percentage of reduction of Erythema (compared to untreated control, median values)",[1]; [6],33%
same,"Percentage of reduction of Edema (compared to untreated control, median values)",[1]; [7],52%
same,"Percentage of reduction of Erythema (compared to untreated control, median values)",[1]; [7],63%
same,"Percentage of reduction of Edema (compared to untreated control, median values)",[1]; [8],39%
same,"Percentage of reduction of Erythema (compared to untreated control, median values)",[1]; [8],30%
same,"Percentage of reduction of Edema (compared to untreated control, median values)",[1]; [9],49%
same,"Percentage of reduction of Erythema (compared to untreated control, median values)",[1]; [9],28%
same,"Percentage of reduction of Edema (compared to untreated control, median values)",[1]; [10],41%
same,"Percentage of reduction of Erythema (compared to untreated control, median values)",[1]; [10],43%
same,"Percentage of reduction of Edema (compared to untreated control, median values)",[1]; [11],100%
same,"Percentage of reduction of Erythema (compared to untreated control, median values)",[1]; [11],100%
same,reduction rates of edema,[1]; 0.8 mg/kg BID,39-100%
same,reduction rates of erythema,[1]; 0.8 mg/kg BID,28-100%
same,"comparative reduction of edema in the CAD model (% compared the control group), up to",[1]; 2 mg/kg BID,> 75%
same,"comparative reduction of erythema in the CAD model (% compared the control group), up to",[1]; 2 mg/kg BID,> 75%
same,"Percentage of reduction of Edema (compared to untreated control, median values)",[1]; [12],76%
same,"Percentage of reduction of Erythema (compared to untreated control, median values)",[1]; [12],74%
same,"Percentage of reduction of Edema (compared to untreated control, median values)",[1]; [13],81%
same,"Percentage of reduction of Erythema (compared to untreated control, median values)",[1]; [13],76%
same,"Percentage of reduction of Edema (compared to untreated control, median values)",[1]; [14],75%
same,"Percentage of reduction of Erythema (compared to untreated control, median values)",[1]; [14],75%
same,"Percentage of reduction of Edema (compared to untreated control, median values)",[1]; [15],79%
same,"Percentage of reduction of Erythema (compared to untreated control, median values)",[1]; [15],76%
same,"Percentage of reduction of Edema (compared to untreated control, median values)",[1]; [16],75%
same,"Percentage of reduction of Erythema (compared to untreated control, median values)",[1]; [16],69%
same,"Percentage of reduction of Edema (compared to untreated control, median values)",[1]; [17],100%
same,"Percentage of reduction of Erythema (compared to untreated control, median values)",[1]; [17],100%
same,reduction rates of edema,[1]; 2 mg/kg BID,75-100%
same,reduction rates of erythema,[1]; 2 mg/kg BID,69-100%
same,effect on clinical signs of CAD (edema and erythema),"[1]; House Dust Mite model, oral BID",significantly reduced
"Cn1cc(-c2nc(N[C@@H]3CCCC[C@@H]3N)c(Cl)c3c2C(=O)NC3)cn1 [IVa, 6-((1R,2S)-2-Aminocyclohexylamino)-7-chloro-4-(1-methyl-1H-pyrazol-4-yl)-1H-pyrrolo[3,4-c]pyridin-3(2H)-one]",IC50,[2],466 nM
same,IC50,[3],323 nM
same,IC50,[4],10.2 nM
same,IC50,[5],624 nM
